According to ChEMBL document CHEMBL4304785, “Recent advances of analogues of curcumin for treatment of cancer” (Eur J Med Chem, 2019):

Assays:
MDA-MB-231 = assay: Increase in MMP3 level in human MDA-MB-231 cells after 24 hrs by ELISA; type: functional, cell-based; conditions: MDA-MB-231, 24 h
HT-1080 [1] = assay: Decrease in UPA expression in human HT1080 cells; type: functional, cell-based
SK-OV-3 = assay: Cell cycle arrest in human SKOV3 cells assessed as accumulation at G1 phase at 15 umol/L after 24 hrs by propidium iodide staining-based assay (reference value: 58.1%); type: functional
HT-1080 [2] = assay: Induction of DNA damage in human HT1080 cells assessed as formation of DNA breaks at 50 ug/ml by comet assay relative to control; type: functional
ASPC1 = assay: Antitumor activity against human Aspc-1 cells xenografted in athymic nude mouse assessed as reduction in tumor volume at 5 mg/kg after 35 days relative to control; type: functional; conditions: ASPC1, 840 h
Tubulin = assay: Inhibition of tubulin polymerization (unknown origin); type: protein-complex assay, Homo sapiens
K562 = assay: Induction of apoptosis in human K562; type: functional, cell-based
[3] = Inhibition of cell invasion in human […] cells at 4 nmol/L after 24 hrs by crystal violet staining based transwell assay relative to control; type: functional
HT-144 [4] = assay: Cytotoxicity against human HT144 cells after 24 hrs by MTT assay; type: functional, cell-based; conditions: HT-144, 24 h
MIA PaCa-2 = assay: Cytotoxicity against human MIAPaCa2 cells after 48 hrs by MTT assay; type: functional, cell-based; conditions: MIA PaCa-2, 48 h
HT-144 [5] = assay: Cytotoxicity against human HT144 cells after 48 hrs by MTT assay; type: functional, cell-based; conditions: HT-144, 48 h
NCI-H460 = assay: Cytotoxicity against human H460 cells after 48 hrs by MTT assay; type: functional, cell-based; conditions: NCI-H460, 48 h
[6] = Cytotoxicity against human WRO cells at 10 uM after 72 hrs by MTS assay relative to control; type: functional
MCF7R = assay: Cytotoxicity against human MCF7/R cells at 5 umol/L after 72 hrs by MTS assay relative to control; type: functional
[7] = Cytotoxicity against human WRO cells after 72 hrs in presence of curcumin by MTS assay relative to control; type: functional
[8] = Cytotoxicity against human WRO cells at 5 umol/L after 72 hrs by MTS assay relative to control; type: functional
[9] = Cytotoxicity against human SW116 cells after 4 hrs by MTT assay; type: functional, cell-based; conditions: SW116, 4 h
SW480 = assay: Cytotoxicity against human SW480 cells after 4 hrs by MTT assay; type: functional, cell-based; conditions: SW480, 4 h
WiDr = assay: Cytotoxicity against human WiDr cells after 4 hrs by MTT assay; type: functional, cell-based
EL4 = assay: Induction of apoptosis in mouse EL4 cells at 50 umol/L after 72 hrs relative to control; type: functional
HT-29 [10] = assay: Cytotoxicity against human HT-29 cells; type: functional, cell-based
HT-29 [11] = assay: Cytotoxicity against human HT-29 cells after 4 hrs by MTT assay; type: functional, cell-based; conditions: HT-29, 4 h
Hep 3B2 = assay: Cytotoxicity against human Hep3B cells; type: functional, cell-based
MCF7 [12] = assay: Cytotoxicity against human MCF7 cells; type: functional, cell-based
[13] = Cytotoxicity against human HPL1D cells; type: functional, cell-based
KM12 = assay: Cytotoxicity against human KM12 cells after 4 hrs by MTT assay; type: functional, cell-based; conditions: KM12, 4 h
HaCaT = assay: Cytotoxicity against human HaCaT cells; type: functional, cell-based
HeLa = assay: Cytotoxicity against human HeLa cells; type: functional, cell-based
T47D = assay: Cytotoxicity against human T47D cells; type: functional, cell-based
BT-474 = assay: Cytotoxicity against human BT474 cells; type: functional, cell-based
Colon 26 = assay: Cytotoxicity against mouse Colon 26 cells after 4 hrs by MTT assay; type: functional, cell-based; conditions: Colon 26, 4 h
DLD-1 = assay: Cytotoxicity against human DLD1 cells; type: functional, cell-based
CCD-841CoN = assay: Cytotoxicity against human CRL1790 cells; type: functional, cell-based
[14] = Cytotoxicity against […] cells by MTT assay; type: functional, cell-based
MCF7 [15] = assay: Anti-invasive activity against human MCF7 cells at 100 umol/L after 12 hrs by giemsa staining based light microscopic analysis relative to control; type: functional
TT = assay: Cytotoxicity against human TT cells by trypan blue dye-based assay; type: functional, cell-based
[16] = target: Fibroblast growth factor receptor 1 (Homo sapiens) (UniProt P11362); assay: Inhibition of FGFR1 (unknown origin) relative to control; conditions: concentration not given here
[17] = target: Fibroblast growth factor receptor 2 (Homo sapiens) (UniProt P21802); assay: Inhibition of FGFR2 (unknown origin) relative to control; conditions: concentration not given here
PC-3 = assay: Cytotoxicity against human PC3 cells; type: functional, cell-based
DU-145 [18] = assay: Cytotoxicity against human DU145 cells; type: functional, cell-based
DU-145 [19] = assay: Potentiation of PTX-induced anticancer activity in human DU145 cells assessed as reduction in PTX IC50 (reference value: 13.5 nmol/L); type: functional, cell-based

Chain of Fibroblast growth factor receptor 1 (Homo sapiens) (P11362 22-822 limits assumed): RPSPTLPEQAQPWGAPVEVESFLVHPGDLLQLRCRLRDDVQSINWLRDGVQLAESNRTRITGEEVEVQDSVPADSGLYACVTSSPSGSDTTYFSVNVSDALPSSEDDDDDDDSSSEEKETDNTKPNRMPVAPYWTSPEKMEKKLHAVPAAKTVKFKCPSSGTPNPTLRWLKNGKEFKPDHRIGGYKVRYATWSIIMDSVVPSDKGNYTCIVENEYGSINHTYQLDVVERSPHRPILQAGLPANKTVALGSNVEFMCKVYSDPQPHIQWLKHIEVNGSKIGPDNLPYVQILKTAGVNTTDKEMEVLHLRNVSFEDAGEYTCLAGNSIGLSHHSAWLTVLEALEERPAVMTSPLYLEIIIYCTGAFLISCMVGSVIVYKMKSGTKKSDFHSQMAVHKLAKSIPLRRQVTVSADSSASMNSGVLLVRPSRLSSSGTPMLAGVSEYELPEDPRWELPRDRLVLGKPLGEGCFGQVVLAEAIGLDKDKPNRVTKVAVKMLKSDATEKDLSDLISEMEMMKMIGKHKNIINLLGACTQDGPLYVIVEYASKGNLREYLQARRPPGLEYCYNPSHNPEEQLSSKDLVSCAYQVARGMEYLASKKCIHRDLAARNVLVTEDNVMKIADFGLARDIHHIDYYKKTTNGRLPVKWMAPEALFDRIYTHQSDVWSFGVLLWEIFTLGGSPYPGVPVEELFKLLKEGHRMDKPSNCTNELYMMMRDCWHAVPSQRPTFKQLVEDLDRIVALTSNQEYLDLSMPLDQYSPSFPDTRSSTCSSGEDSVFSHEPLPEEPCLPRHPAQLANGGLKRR
Chain of Fibroblast growth factor receptor 2 (Homo sapiens) (P21802 22-821 limits assumed): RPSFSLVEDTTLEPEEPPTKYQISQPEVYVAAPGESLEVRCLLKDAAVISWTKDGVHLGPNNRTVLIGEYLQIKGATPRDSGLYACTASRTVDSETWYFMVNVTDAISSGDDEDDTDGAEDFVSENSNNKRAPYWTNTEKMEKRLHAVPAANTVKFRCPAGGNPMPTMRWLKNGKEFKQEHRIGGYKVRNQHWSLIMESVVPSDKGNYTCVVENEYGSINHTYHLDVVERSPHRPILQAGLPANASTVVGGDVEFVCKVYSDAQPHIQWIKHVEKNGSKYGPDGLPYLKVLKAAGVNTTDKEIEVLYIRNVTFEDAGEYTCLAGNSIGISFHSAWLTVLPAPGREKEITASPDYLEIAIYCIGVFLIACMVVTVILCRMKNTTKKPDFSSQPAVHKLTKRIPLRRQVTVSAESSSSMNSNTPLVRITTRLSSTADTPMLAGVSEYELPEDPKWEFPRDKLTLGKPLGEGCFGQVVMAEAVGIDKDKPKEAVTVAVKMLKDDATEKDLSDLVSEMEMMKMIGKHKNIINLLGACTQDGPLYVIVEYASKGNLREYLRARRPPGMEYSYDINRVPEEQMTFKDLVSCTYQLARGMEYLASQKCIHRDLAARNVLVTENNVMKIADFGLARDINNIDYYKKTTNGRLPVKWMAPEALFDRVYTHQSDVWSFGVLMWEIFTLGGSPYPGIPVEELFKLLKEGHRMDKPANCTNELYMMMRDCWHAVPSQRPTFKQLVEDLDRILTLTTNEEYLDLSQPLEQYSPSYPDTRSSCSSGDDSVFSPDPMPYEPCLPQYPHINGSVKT

O=C(/C=C/c1ccc(O)cc1)CC(=O)/C=C/c1ccc(O)cc1 [BISDEMETHOXYCURCUMIN]
IC50 (MDA-MB-231): 11 µM | IC50 (HT-1080 [1]): 7 µM | Activity (SK-OV-3): 79.7%

O=C(O)/C=C/c1ccc(O)c(O)c1 [CAFFEIC ACID]
Activity (HT-1080 [2]): 85%

COc1cc(CNC(=O)CCCC/C=C/C(C)C)ccc1O [CAPSAICIN]
inhibition in vivo at 5 mg/kg (ASPC1): 73%

O=C(/C=C/c1ccccc1)c1ccccc1 [CHALCONE]
IC50 (Tubulin): 620 µM | IC50 (K562): 4.3 µM

O=C(O)/C=C/c1ccccc1 [CINNAMIC ACID]
inhibition at 0.004 µM [3]: 60% | IC50 (HT-144 [4]): 2.4 µM | IC50 (MIA PaCa-2): 1.33 µM | IC50 (HT-144 [5]): 1.07 µM | IC50 (NCI-H460): 2.1 µM

COc1cc(/C=C/c2cc(/C=C/c3ccc(O)c(OC)c3)[nH]n2)ccc1O [CURCUMIN PYRAZOLE]
inhibition at 10 µM [6]: 48.2% | inhibition at 5 µM (MCF7R): 52.8% | inhibition (INH) [7]: 41% | inhibition at 5 µM [8]: 48.9%

COc1cc(/C=C/C(=O)CC(=O)/C=C/c2ccc(O)c(OC)c2)ccc1O [CURCUMIN]
IC50 [9]: 27.5 µM | IC50 (SW480): 17.9 µM | IC50 (WiDr): 26.8 µM | Activity (EL4): 95% | IC50 (HT-29 [10]): 132 µM | IC50 (HT-29 [11]): 20.7 µM | IC50 (Hep 3B2): 10 µM | IC50 (MCF7 [12]): 19.9 µM | IC50 [13]: 16 µM | IC50 (KM12): 16 µM | IC50 (HT-1080 [1]): 10 µM | IC50 (HaCaT): 13 µM | IC50 (HeLa): 8.2 µM | IC50 (T47D): 11 µM | IC50 (BT-474): 11 µM | IC50 (Colon 26): 30.3 µM | IC50 (DLD-1): 146 µM | IC50 (CCD-841CoN): 105 µM | IC50 [14]: 8.5 µM

O=C(CC(=O)c1ccccc1)c1ccccc1 [DIBENZOYLMETHANE]
Activity (MCF7 [15]): 84%

COc1cc(/C=C/C(=O)O)ccc1O [FERULATE]
IC50 (TT): 150 µM | inhibition [16]: 92% | inhibition [17]: 64%

C/C1=C\CC(C)(C)/C=C/C(=O)/C(C)=C/CC1 [ZERUMBONE]
IC50 (PC-3): 9.1 µM | IC50 (DU-145 [18]): 6.9 µM | IC50 (DU-145 [19]): 0.0055 µM
